Measurements as given in patent US6593374B2, “Tubulin binding ligands and corresponding prodrug constructs” (Baylor University, priority 2000, dated 2003).
≈ marks a conversion by molar mass, not a printed value. Like-named read-outs stand apart in the source and are kept apart here.

Columns and labels:
tumor vasculature = conditions: cited from earlier work
purified tubulin [1] = conditions: previously described compounds; cited from earlier work
[2] = cited from earlier work
purified tubulin [3] = system: T1, purified tubulin; experiment: Inhibition of tubulin polymerization assay; format: biochemical, bovine; conditions: for IC50: read-out: IC50, in vitro inhibition of tubulin polymerization, purified bovine brain tubulin 1.5 mg/ml, 15 min preincubation at 37° C., GTP-induced, 350 nm
T1 construct: other: purified bovine brain tubulin 1.5 mg/ml, 15 min preincubati
Description: After the incubation period, the reaction was cooled and GTP was added to induce tubulin polymerization. Polymerization was then monitored in a Gilford spectrophotometer at 350 nm. The final reaction mixtures (0.25 ml) contained 1.5 mg/ml tubulin, 0.6 mg/ml microtubule-associated proteins (MAPs), 0.5 mM GTP, 0.5 mM MgCl2, 4% DMSO and 0.1M 4-morpholineethanesulfonate buffer (MES, pH 6.4).

NCI 60 cell line panel = experiment: NCI 60 cell line panel; format: cell-based; conditions: Homo sapiens
human cancer cells = experiment: Cytotoxicity against human cancer cells; format: cell-based
SF-295 = experiment: Growth inhibition, human cancer cell line SF-295 (SRB); format: cell-based; conditions: CNS, 48 hours
Description: (§1) Several of the compounds described in this application were evaluated in terms of growth inhibitory activity against several human cancer cell lines, including pancreas, breast, CNS, lung-NSC, colon, and prostate lines. The assay used is described in Monks et al.^32 Briefly, the cell suspensions, diluted according to the particular cell type and the expected target cell density (5,000-40,000 cells per well based on cell growth characteristics), were added by pipet (100 μl) to 96-well microtiter plates. Inoculates were allowed a preincubation time of 24-28 hours at 37° C. for stabilization. Incubation with the inhibitor compounds lasted for 48 hours in 5% CO2 atmosphere and 100% humidity. Determination of cell growth was done by in situ fixation of cells, followed by staining with a protein-binding dye, sulforhodamine B (SRB), which binds to the basic amino acids of cellular macromolecules. The solubilized stain was measured spectrophotometrically.

BXPC-3 = experiment: Growth inhibition, human cancer cell line BXPC-3 (SRB); format: cell-based; conditions: Pancreas-a, 48 hours
Description: as §1

NCI-H460 = experiment: Growth inhibition, human cancer cell line NCI-H460 (SRB); format: cell-based; conditions: Lung-NSC, 48 hours
Description: as §1

MCF-7 = experiment: Growth inhibition, human cancer cell line MCF-7 (SRB); format: cell-based; conditions: 48 hours
Description: as §1

KM20L2 = experiment: Growth inhibition, human cancer cell line KM20L2 (SRB); format: cell-based; conditions: 48 hours
Description: as §1

DU-145 = experiment: Growth inhibition, human cancer cell line DU-145 (SRB); format: cell-based; conditions: Prostate, 48 hours
Description: as §1

MHEC = experiment: In vivo tumor growth control in scid mice after MHEC inoculation; conditions: female scid mice, single dose ip 400 mg/kg, one week after MHEC inoculation (1×10^6/mouse)
Description: Female scid mice were single dose ip administered with CA-4P, and benzo[b]thiophene phosphate prodrug at 400 mg/kg (i.e., MDT of CA-4P) after one week of MHEC inoculation (1×10^6/mouse) (FIG. 20). Studies were carried out through a collaboration with professors Ronald W. Pero and Klaus Edvardsen, University of Lund, Sweden

SF-268 = experiment: Growth inhibition, human cancer cell line SF-268 (SRB); format: cell-based; conditions: CNS Gliobl, 48 hours
Description: as §1

P388 leukemia cells = experiment: Cytotoxicity assay with P388 leukemia cells; format: cell-based
OVCAR-3 = experiment: Growth inhibition, human cancer cell line OVCAR-3 (SRB); format: cell-based; conditions: Ovarian, 48 hours
Description: as §1

FADU = experiment: Growth inhibition, human cancer cell line FADU (SRB); format: cell-based; conditions: Pharynx-sqam, 48 hours
Description: as §1

[4] = Homo sapiens, MCF7, Breast adn, read-out: GI50
[5] = Homo sapiens, KM-20L2, Colon, read-out: GI50

Question: For COc1ccc(/C=C\c2cc(OC)c(OC)c(OC)c2)cc1OP(=O)([O-])[O-].[Na+].[Na+] [CSA-4 prodrug], which “destruction of tumor vasculature (in words)” value (tumor vasculature) is on record?
Answer: very active in terms of tumor vasculature destruction

Question: With COc1ccc(/C=C\c2cc(OC)c(OC)c(OC)c2)cc1O [Combretastatin A-4] as the molecule, how does the “inhibition of tubulin polymerization (in words)” value (from here on “inhibition”) (purified tubulin [1]) read?
Answer: potent inhibitor of tubulin polymerization

Question: What about the “destruction of tumor vasculature (in words)” value (tumor vasculature) of the same molecule?
Answer: does not demonstrate destruction of tumor vasculature

Question: And the “water solubility (in words)” value [2]?
Answer: poor water solubility

Question: With COc1ccc2scc(OC)c2c1OC [Compound 1, 3,4,5-trimethoxybenzo[b]thiophene] as the molecule, how does the “inhibition” value (purified tubulin [3]) read?
Answer: inhibition of tubulin polymerization

Question: What about the GI50 (NCI 60 cell line panel) of the same molecule?
Answer: 263 nM

Question: And the “cytotoxicity (in words)” value (human cancer cells)?
Answer: potent cytotoxicity

Question: Which results are given for COc1ccc2c(C(=O)c3cc(OC)c(OC)c(OC)c3)c(-c3ccc(OC)c(OP(=O)([O-])[O-])c3)sc2c1.[Na+].[Na+] [Compound 3, 3-(3′,4′,5′-trimethoxybenzoyl)-2-(3′-sodiumphosphate-4′-methoxyphenyl)-6-methoxybenzo[b]thiophene]?
Answer: IC50 (purified tubulin [3]): 1 to 4 µM; GI50 (SF-295): 0.11 µg/mL; GI50 (BXPC-3): 0.35 µg/mL; GI50 (NCI-H460): 0.035 µg/mL; GI50 (MCF-7; Breast adn): 0.028 µg/mL; GI50 (KM20L2; Colon): 0.22 µg/mL; GI50 (DU-145): 0.045 µg/mL; tumor growth control (FIG. 20) (MHEC): remarkable activity in terms of tumor growth control

Question: Which IC50 (purified tubulin [3]) does the source give for COc1ccc2c(c1)CCCC2(O)c1cc(OC)c(OC)c(OC)c1 (stereo not drawn) [Compound 14A] here?
Answer: 1 to 4 µM

Question: What about the GI50 (BXPC-3; Homo sapiens, read-out: GI50) of the same molecule?
Answer: 0.13 µg/mL (≈ 0.377 µM)

Question: What about the GI50 (NCI-H460; Homo sapiens, read-out: GI50) of the same molecule?
Answer: 0.16 µg/mL (≈ 0.465 µM)

Question: What about the GI50 (MCF-7; [4]) of the same molecule?
Answer: 0.043 µg/mL (≈ 0.125 µM)

Question: And the GI50 (KM20L2; [5])?
Answer: 0.11 µg/mL (≈ 0.319 µM)

Question: And the GI50 (DU-145; Homo sapiens, read-out: GI50)?
Answer: 0.38 µg/mL (≈ 1.1 µM)

Question: What about the GI50 (SF-268) of the same molecule?
Answer: 0.67 µg/mL (≈ 1.95 µM)

Question: For CCOP(=O)(Nc1c(OC)ccc2c1CCC=C2c1cc(OC)c(OC)c(OC)c1)OCC [Compound 16, 6-methoxy-1-(3′,4′,5′-trimethoxyphenyl)-5-diethylphosphoramidate-3,4-dihydronaphthalene], which IC50 (purified tubulin [3]) is on record?
Answer: > 40 µM

Question: And the “ED50 (effective dosage required to inhibit 50% of cell growth)” value (P388 leukemia cells)?
Answer: 20.4 µg/mL

Question: What about the GI50 (SF-295; Homo sapiens, read-out: GI50) of the same molecule?
Answer: 2.2 µg/mL (≈ 4.61 µM)

Question: What about the GI50 (BXPC-3; Homo sapiens, read-out: GI50) of the same molecule?
Answer: 2 µg/mL (≈ 4.19 µM)

Question: And the GI50 (NCI-H460; Homo sapiens, read-out: GI50)?
Answer: 3.4 µg/mL (≈ 7.12 µM)

Question: What about the GI50 (MCF-7; [4]) of the same molecule?
Answer: 3 µg/mL (≈ 6.28 µM)

Question: And the GI50 (KM20L2; [5])?
Answer: 2.5 µg/mL (≈ 5.24 µM)

Question: What about the GI50 (DU-145; Homo sapiens, read-out: GI50) of the same molecule?
Answer: 2.8 µg/mL (≈ 5.86 µM)

Question: With C#CC=CC#CC(=O)c1cc(OC)c(OC)c(OC)c1 [Compound 30, 1-(3,4,5-trimethoxybenzoyl)-(Z)-3-ene-1,5-hexadiyne] as the molecule, how does the “inhibition” value (purified tubulin [3]) read?
Answer: excellent inhibition of tubulin polymerization

Question: And the IC50 (purified tubulin [3])?
Answer: 2 to 4 µM

Question: What about the GI50 (SF-295; Homo sapiens, read-out: GI50) of the same molecule?
Answer: 1.7 µg/mL (≈ 6.29 µM)

Question: And the GI50 (BXPC-3; Homo sapiens, read-out: GI50)?
Answer: 1.4 µg/mL (≈ 5.18 µM)

Question: What about the GI50 (NCI-H460; Homo sapiens, read-out: GI50) of the same molecule?
Answer: 1.7 µg/mL (≈ 6.29 µM)

Question: And the GI50 (DU-145; Homo sapiens, read-out: GI50)?
Answer: 0.54 µg/mL (≈ 2 µM)

Question: And the GI50 (OVCAR-3)?
Answer: 0.53 µg/mL (≈ 1.96 µM)

Question: And the GI50 (FADU)?
Answer: 0.95 µg/mL (≈ 3.51 µM)

Question: And the “cytotoxicity (in words)” value (human cancer cells)?
Answer: strong cytotoxicity
